The values that follow come from patent publication US9370537B2, “Compositions and methods for reducing inflammation” (Cerule, LLC, priority 2009, dated 2016).

The assay in a line: Case report: menstrual cramps. To be noted: person, single dose. Type of assay: in vivo, human. The protocol: The anti-inflammatory effect of the 1117 fraction is evidenced by the following: • 1. A person experienced moderate to severe muscle pain after exercising. The person was in otherwise good health, but would consume four Advil after playing tennis. […] A person in good health and with regular menstruation typically experienced a day during menstruation with moderate to severe menstrual cramps. On one occasion, the painful cramps were so severe that they were not relieved by 1 hour heat or 1000 mg Tylenol. […] The relief happened within 5-10 minutes after consumption, and lasted 8 hours. • 3. A person in good health experienced severe, throbbing muscle pain after a 1-hour session of deep tissue massage. The pain was relieved within 30 minutes after consuming a single dose of 500 mg the 1117 fraction.

For `CC(=O)Nc1ccc(O)cc1` [Tylenol], the “effect on severe menstrual cramps and pain” value was “not relieved”.
